The structures appear in SMILES notation.

Data set [1] can be described thus: Absorbance and fluorescence emission spectra (SpectraMax M2). The data set is classed as physicochemical. The following applies: BDCAC library, Table 3. The protocol: BDC-8 (Blue): absorbance λmax=473 nm, emission λmax=585 nm; MK101-8 (Green): absorbance λmax=474 nm, emission λmax=563 nm; MKHA374-48 (Yellow): absorbance λmax=468 nm, λem=557 nm. The corresponding spectra of a reported BODIPY (BD-27; Red) are also included for comparison: absorbance λmax=551 nm, emission λmax=568 nm. The structures of BDC-8, MK101-8, MKHA374-48 and BD-27 are also depicted.
(§1) ^1H-NMR, ^19F-NMR and ^13C-NMR spectra were recorded on Bruker ACF300 (300 MHz), DPX300 (300 MHz) and AMX500 (500 MHz) spectrometers. High resolution mass spectra (ESI) were obtained on a Finnigan/MAT 95XL-T spectrometer. Spectroscopic and quantum yield data were measured on a SpectraMax M2 spectrophotometer (Molecular Devices). Data analysis was performed using GraphPrism 5.0. Analytical characterization was performed on a HPLC-MS (Agilent-1200 series) with a DAD detector and a single quadrupole mass spectrometer (6130 series) with an ESI probe. Analytical HPLC method: eluents, A: H2O (0.1% HCOOH), B: CH3CN (0.1% HCOOH), gradient 5% B to 95% B (10 min). Reverse-phase Phenomenex C18 Luna column (4.6×50 mm^2, 3.5 […]), flow rate: 1 mL/min.

Data set [2] is described as follows: Quantum yield measurements versus Acridine Yellow in EtOH. In kind it is physicochemical. The following applies: BDCAC library, Table 3; excitation 460 nm. The protocol: as §1
Quantum yields were calculated by measuring the integrated emission area of the fluorescent spectra and comparing to the area measured for Acridine Yellow in EtOH when excited at 460 nm (Φfluorescence^AcridineYellow=0.47). Quantum yields for the amino-triazolyl-BODIPYs were calculated using the equation below, where F represents the area of fluorescent emission, η is the refractive index of the solvent, and Abs is absorbance at the excitation wavelength selected for standards and samples. Emission was integrated between 510 and 700 nm.

Take `CC(=O)Nc1ccc(C2=C3C=CC(N4CCCCC4)=[N+]3[B-](F)(F)n3c2ccc3-n2cc(-c3ccc(C(C)(C)C)cc3)nn2)cc1` [BDCAC-11]: in data set [1], the “λmax Absorp.” value was found to be 465 nm and the “λmax Emission” value is reported as 582 nm. Moreover, the “φ (quantum yield)” value in data set [2] worked out at 1.4%.
The like results for `CCCCc1ccc(-c2cn(-c3ccc4n3[B-](F)(F)[N+]3=C(N5CCCCC5)C=CC3=C4c3ccc(NC(C)=O)cc3)nn2)cc1` [BDCAC-12] were, in that order, 464 nm, 558 nm and 1.6%.
On the same counts, the results for `CC(=O)Nc1ccc(C2=C3C=CC(N4CCCCC4)=[N+]3[B-](F)(F)n3c2ccc3-n2cc(-c3ccc(N(C)C)cc3)nn2)cc1` [BDCAC-13] are 467 nm, 619 nm and 0.1%.
On the same counts, the results for `COc1cc(OC)cc(-c2cn(-c3ccc4n3[B-](F)(F)[N+]3=C(N5CCCCC5)C=CC3=C4c3ccc(NC(C)=O)cc3)nn2)c1` [BDCAC-14] are 464 nm, 588 nm and 1.0%.
For `CC(=O)Nc1ccc(C2=C3C=CC(N4CCCCC4)=[N+]3[B-](F)(F)n3c2ccc3-n2cc(-c3ccc(OC(F)(F)F)cc3)nn2)cc1` [BDCAC-15], in data set [1], the “λmax Absorp.” value was found to be 463 nm and the “λmax Emission” value is recorded as 537 nm. The “φ (quantum yield)” value in data set [2] was 2.7%.
For the compound `CC(=O)Nc1ccc(C2=C3C=CC(N4CCCCC4)=[N+]3[B-](F)(F)n3c2ccc3-n2cc(-c3ccc(F)c(F)c3)nn2)cc1` [BDCAC-16], in data set [1], the “λmax Absorp.” value stood at 462 nm and the “λmax Emission” value was 586 nm. Also, the “φ (quantum yield)” value in data set [2] was 0.7%.
On the same counts, the results for `CC(=O)Nc1ccc(C2=C3C=CC(N4CCCCC4)=[N+]3[B-](F)(F)n3c2ccc3-n2cc(COc3ccccc3)nn2)cc1` [BDCAC-17] are 465 nm, 584 nm and 0.8%.
On the same counts, the results for `CC(=O)Nc1ccc(C2=C3C=CC(N4CCCCC4)=[N+]3[B-](F)(F)n3c2ccc3-n2cc(CN(C)Cc3ccccc3)nn2)cc1` [BDCAC-18] are 465 nm, 588 nm and 0.8%.
On the same counts, the results for `CC(=O)Nc1ccc(C2=C3C=CC(N4CCCCC4)=[N+]3[B-](F)(F)n3c2ccc3-n2cc(CCc3ccccc3)nn2)cc1` [BDCAC-19] are 467 nm, 580 nm and 0.9%.
Regarding `COc1ccc2cc(-c3cn(-c4ccc5n4[B-](F)(F)[N+]4=C(N6CCCCC6)C=CC4=C5c4ccc(NC(C)=O)cc4)nn3)ccc2c1` [BDCAC-22], in data set [1], the “λmax Absorp.” value is recorded as 465 nm and the “λmax Emission” value turned out to be 585 nm. For the same compound, in data set [2], the “φ (quantum yield)” value is 1.2%.
`CC(=O)Nc1ccc(C2=C3C=CC(N4CCCCC4)=[N+]3[B-](F)(F)n3c2ccc3-n2cc(-c3ccc(-c4ccccc4)cc3)nn2)cc1` [BDCAC-23]: in data set [1], the “λmax Absorp.” value was 465 nm and the “λmax Emission” value is reported as 574 nm. For the same compound, the “φ (quantum yield)” value in data set [2] was determined as 1.3%.
The like results for `CC(=O)Nc1ccc(C2=C3C=CC(N4CCCCC4)=[N+]3[B-](F)(F)n3c2ccc3-n2cc(-c3ccc(F)cc3F)nn2)cc1` [BDCAC-26] were, in that order, 465 nm, 567 nm and 1.3%.
On to `COc1cccc(-c2cn(-c3ccc4n3[B-](F)(F)[N+]3=C(N5CCCCC5)C=CC3=C4c3ccc(NC(C)=O)cc3)nn2)c1` [BDCAC-27], for which, in data set [1], the “λmax Absorp.” value is reported as 464 nm and the “λmax Emission” value came to 555 nm. Moreover, the “φ (quantum yield)” value in data set [2] turned out to be 2.1%.
`CCCCCc1ccc(-c2cn(-c3ccc4n3[B-](F)(F)[N+]3=C(N5CCCCC5)C=CC3=C4c3ccc(NC(C)=O)cc3)nn2)cc1` [BDCAC-29]: in data set [1], the “λmax Absorp.” value came out at 465 nm and the “λmax Emission” value came to 561 nm. The “φ (quantum yield)” value in data set [2] is listed as 1.6%.
The like results for `CC(=O)Nc1ccc(C2=C3C=CC(N4CCCCC4)=[N+]3[B-](F)(F)n3c2ccc3-n2cc(-c3cc(C(F)(F)F)cc(C(F)(F)F)c3)nn2)cc1` [BDCAC-30] were, in that order, 459 nm, 549 nm and 3.5%.
The like results for `CC(=O)Nc1ccc(C2=C3C=CC(N4CCCCC4)=[N+]3[B-](F)(F)n3c2ccc3-n2cc(-c3cccc(F)c3)nn2)cc1` [BDCAC-31] were, in that order, 463 nm, 569 nm and 0.9%.
On the same counts, the results for `CC(=O)Nc1ccc(C2=C3C=CC(N4CCCCC4)=[N+]3[B-](F)(F)n3c2ccc3-n2cc(CCC(C)C)nn2)cc1` [BDCAC-36] are 467 nm, 585 nm and 0.8%.
As for `CC(=O)Nc1ccc(C2=C3C=CC(N4CCCCC4)=[N+]3[B-](F)(F)n3c2ccc3-n2cc(C3=CCCCC3)nn2)cc1` [BDCAC-37], in data set [1], the “λmax Absorp.” value is listed as 466 nm and the “λmax Emission” value amounted to 565 nm. In data set [2], the “φ (quantum yield)” value is recorded as 1.9%.
As to `CCCCc1cn(-c2ccc3n2[B-](F)(F)[N+]2=C(N4CCCCC4)C=CC2=C3c2ccc(NC(C)=O)cc2)nn1` [BDCAC-42], in data set [1], the “λmax Absorp.” value is 467 nm and the “λmax Emission” value is 577 nm. In addition, the “φ (quantum yield)” value in data set [2] is 1.3%.
The like results for `CC(=O)Nc1ccc(C2=C3C=CC(N4CCCCC4)=[N+]3[B-](F)(F)n3c2ccc3-n2cc(CC(C)C)nn2)cc1` [BDCAC-43] were, in that order, 467 nm, 581 nm and 0.8%.
The like results for `CCCCCCCCc1cn(-c2ccc3n2[B-](F)(F)[N+]2=C(N4CCCCC4)C=CC2=C3c2ccc(NC(C)=O)cc2)nn1` [BDCAC-44] were, in that order, 468 nm, 581 nm and 0.8%.
Turning to `CC(=O)Nc1ccc(C2=C3C=CC(N4CCCCC4)=[N+]3[B-](F)(F)n3c2ccc3-n2cc(-c3cccc(C)c3)nn2)cc1` [BDCAC-45], in data set [1], the “λmax Absorp.” value is reported as 463 nm and the “λmax Emission” value worked out at 551 nm. The “φ (quantum yield)” value in data set [2] is listed as 3.2%.
On the same counts, the results for `CCc1ccc(-c2cn(-c3ccc4n3[B-](F)(F)[N+]3=C(N5CCCCC5)C=CC3=C4c3ccc(NC(C)=O)cc3)nn2)cc1` [BDCAC-46] are 465 nm, 578 nm and 1.4%.
The like results for `CCCCCCc1cn(-c2ccc3n2[B-](F)(F)[N+]2=C(N4CCCCC4)C=CC2=C3c2ccc(NC(C)=O)cc2)nn1` [BDCAC-47] were, in that order, 467 nm, 562 nm and 1.4%.
On to `CCCc1cn(-c2ccc3n2[B-](F)(F)[N+]2=C(N4CCCCC4)C=CC2=C3c2ccc(NC(C)=O)cc2)nn1` [BDCAC-48], for which, in data set [1], the “λmax Absorp.” value came to 467 nm and the “λmax Emission” value was 576 nm. For the same compound, the “φ (quantum yield)” value in data set [2] was 1.6%.
The like results for `CCCCCCCCCCc1cn(-c2ccc3n2[B-](F)(F)[N+]2=C(N4CCCCC4)C=CC2=C3c2ccc(NC(C)=O)cc2)nn1` [BDCAC-49] were, in that order, 467 nm, 575 nm and 1.3%.

The record behind these values is US9513294B2, “Megastokes amino-triazolyl-BODIPY compounds and applications to live neuron staining and human serum albumin FA1 drug site probing” (National University of Singapore, priority 2012, dated 2016).
